Five molecules from patent publication EP0374919A1, “Morphine derivative” (Chugai Seiyaku Kabushiki Kaisha, priority 1988, dated 1990) can be followed below.

The structures appear in SMILES notation. Like-named read-outs stand apart in the source and are kept apart here.

For test [1], the system named is male mice (Slc: ddy). As to the kind of experiment: Analgesic effect examined by acetic acid-writhing test. It is filed as in vivo. Conditions: subcutaneous injection 30 minutes before 0.6% acetic acid i.p., writhings counted within 10 minutes, 7 mice per group. How it is done:
Example 8 Analgesic Effect Examined by Acetic Acid- Writhing Test:
Male mice (Slc: ddy) aged 5 weeks were divided into groups each having 7 animals. […] After 30 minutes, 0.6% acetic acid was intraperitoneally administered to each mouse in a dose of 0.1 ml/10 g. 10 minutes thereafter, the writhings thus induced were counted within 10 minutes. […] The acetic acid-writhing test was conducted according to a method reported by R. Koster, M. Anderson and E.I. Debeer [refer to Fed. Proc., 18, 412 (1959)].

The subject of test [2] is male mice (Slc: ddy). Description: Analgesic examination by radiant heat-stimulation test (tail irradiation, pain threshold). Conditions: for analgesic effect (pain threshold): range 0.03 to 1.0 mg/kg. It counts as in vivo. How it is done: Example 6 Analgesic Examination by Radiant Heat-Stimulation Test:
Each group had 7 animals. An hour after the injection, the analgesic effect of each compound was examined by radiant heat-stimulation test [refer to A.G. Hayes, M.J. Sheehan, M.B. Tyers; Brit. J. Pharmacol., 91, 111 - 115 (1987)]. Namely, the tail of each mouse was irradiated with intense light and the time required until the animal switched its tail was measured. The value thus measured was referred to as the pain threshold.

Test [3] deals with extirpated guinea pig ileum pieces. As to the kind of experiment: Transmural electric stimulation test on an extirpated guinea pig ileum piece (smooth muscle contraction). It is filed as cell-based. Conditions: for pD₂: transmural electric stimulation 0.1 Hz, smooth muscle contraction. How it is done:
Example 7 Transmural Electric Stimulation Test on an Extirpated Guinea Pig Ileum Piece:
The effects of the compounds were examined by applying transmural electric stimulation (0.1 Hz) to extirpated guinea pig ileum pieces while using the smooth muscle contraction as an indication [refer to H.K. Kopsterlitz, A.A. Waterfield; Annu. Rev. Pharmacol., 15, 29 - 47 (1975)].
The data shown in Table 1 were calculated according to a method reported by Arunlakshana and Schild [refer to 0. Arunlakashana, H.O. Schild; Brit. J. Pharmacol., 14, 48 - 58 (1959)]. Each value is expressed in mean ± standard deviation.

Where [4] appears, read: subcutaneous, an hour after the injection, p < 0.01 in Dunnett's t-test.
Where [5] appears, read: subcutaneous, an hour after the injection.
Setting [6] is: antagonism by naloxone, method of Arunlakshana and Schild, mean ± standard deviation.

`CCC(=O)Oc1ccc2c3c1O[C@H]1[C@H](SC(=O)CC)C=C[C@H]4[C@@H](C2)N(CC2CC2)CC[C@@]341` [Compound IX, 3-propionyl-6β-propionylthio-cyclopropylmethylnormorphine] came in with an ED₅₀ in test [1] of 0.047 mg/kg.
As to `CC(=O)S[C@@H]1C=C[C@H]2[C@H]3Cc4ccc(O)c5c4[C@@]2(CCN3CC2CC2)[C@H]1O5` [Compound VI, 6β-acetylthio-N-cyclopropylmethylnormorphine], in test [2] (setting [4]), the “dose with statistically significant analgesic effect” value came out at 1.0 mg/kg. In addition, in test [2] (setting [5]), the “analgesic effect (pain threshold)” value was “analgesic effect depending on dose”. For the same molecule, the “pA₂ (naloxone)” value in test [3] (setting [6]) is reported as 7.75 ± 0.12. The pD₂ in test [3] (mean ± standard deviation) is 8.38 ± 0.06.
Consider `CC(=O)Oc1ccc2c3c1O[C@H]1[C@H](SC(C)=O)C=C[C@H]4[C@@H](C2)N(CC2CC2)CC[C@@]341.Cl` [Compound VII, 3-acetyl-6β-acetylthio-N-cyclopropylmethylnormorphine hydrochloride], for which the “dose with statistically significant analgesic effect” value in test [2] (setting [4]) is on record as 1.0 mg/kg. Moreover, the “analgesic effect (pain threshold)” value in test [2] (setting [5]) is on record as “analgesic effect depending on dose”. Moreover, the “pA₂ (naloxone)” value in test [3] (setting [6]) amounted to 7.80 ± 0.13. Besides, the pD₂ in test [3] (mean ± standard deviation) is on record as 9.01 ± 0.16. Further, in test [1], the ED₅₀ is 0.062 mg/kg.
Regarding `CN1CC[C@]23c4c5ccc(O)c4O[C@H]2[C@@H](O)C=C[C@H]3[C@H]1C5.Cl` [Morphine hydrochloride, reference compound], the “dose with statistically significant analgesic effect” value in test [2] (mouse, in vivo, sc) is no less than 3.2 mg/kg. The “pA₂ (naloxone)” value in test [3] was determined as 8.45 ± 0.13.
On to `CC(C)=CCN1CCC2(C)c3cc(O)ccc3CC1C2C` (stereo not shown) [Pentazocine, reference compound], for which, in test [1] (Mus musculus, sc, read-out: ED₅₀), the ED50 is 0.869 mg/kg.
